Values quoted from earlier work as cited in article PMC5051147, “Ester Hydrolysis Differentially Reduces Aconitine-Induced Anti-hypersensitivity and Acute Neurotoxicity: Involvement of Spinal Microglial Dynorphin Expression and Implications for Aconitum Processing” (Frontiers in Pharmacology, 2016).

Key:
mice = tested on: mice; parameters: method as in Zheng et al., 1994; conditions: subcutaneous, ref Zheng et al., 1994; cited from earlier work
rats = tested on: rats; parameters: method as in Zheng et al., 1994; conditions: subcutaneous, ref Zheng et al., 1994; cited from earlier work
[1] = parameters: method as in Zheng et al., 1994; conditions: intracerebroventricular injection; ref Zheng et al., 1994; cited from earlier work
[2] = tested on: acetic acid and formalin tests; parameters: method as in Yu et al., 1996; conditions: systemic; ref Yu et al., 1996; cited from earlier work

| Structure (SMILES) | ED50 relative to 3-acetylaconitine (times greater) (mice) | ED50 relative to 3-acetylaconitine (times greater) (rats) | Therapeutic index relative to 3-acetylaconitine [1] | Antinociception compared with analogues [2] |
| --- | --- | --- | --- | --- |
| CCN1C[C@]2(COC)[C@H](OC(C)=O)C[C@H](OC)C34C1C([C@H](OC)[C@@H]32)[C@]1(O)[C@@H]2[C@H]4C[C@@](O)([C@@H]2OC(=O)c2ccccc2)[C@@H](OC)[C@@H]1OC(C)=O [3,15-diacetylbenzoylaconine] | 12–16 times | 25–30 times | three-fold higher |  |
| CCN1C[C@]2(COC)[C@H](O)C[C@H](OC)[C@]34C1[C@H]([C@H](OC)[C@H]23)[C@@]1(OC(C)=O)C[C@H](OC)[C@@]2(O)C[C@@H]4[C@@H]1[C@H]2OC(=O)c1ccc(OC)cc1 [yunaconitine] |  |  |  | greater antinociception than bulleyaconitine A and 3-acetylaconitine |
